Reference: patent US20240293553A1, “P-SELECTIN INHIBITORS AND USES THEREOF” (Beth Israel Deaconess Medical Center, Inc., priority 2021, published 2024)
“And” between values parts separate entries of the source, which are not always exact repeats. Equal entries are not always repeated. Where two headings read alike, the source gives them in different places. Square brackets hold non-standard residues; d marks the D form. Ends that are not written are not given here. Peptide text beside a SMILES is read from it. * marks the point of attachment. X1 = CC(=O)N[C@H]1[C@H](OCCn2cc(C*)nn2)O[C@H](CO)[C@@H](O[C@@H]2O[C@H](CO)[C@H](O)[C@H](O[C@]3(C(=O)O)C[C@H](O)[C@@H](NC(C)=O)[C@H]([C@H](O)[C@H](O)CO)O3)[C@H]2O)[C@@H]1O[C@@H]1O[C@@H](C)[C@@H](O)[C@@H](O)[C@@H]1O; Phe(4-CH2SO3H) = N[C@@H](Cc1ccc(CS(=O)(=O)O)cc1)C(=O)O

Assays:
[1] = tested on: venous thrombus; assay: Murine model of non-occlusive venous thrombosis (electrolytic injury of the inferior vena cava); assay type: in vivo, C57BL/6 mice; settings: 48 h after injury; glycopeptide 8 μmol/kg IV, LMWH (enoxaparin) 6 mg/kg SC
From the text: Venous side branches were ligated or cauterized, while posterior branches were left patent. A 25-gauge stainless steel needle, attached to a silver-coated copper wire was inserted into the exposed caudal vena cava and positioned against the anterior wall (anode). […] Subsequently, the needle was removed and a cotton swab held in gentle contact with the puncture site to prevent bleeding.

[2] = tested on: platelet-leukocyte aggregates; assay: Platelet-leukocyte aggregation in mouse whole blood (PAR4-activating peptide), flow cytometry; assay type: cell-based; settings: 120 μM
Experimental: (§1) Platelet-leukocyte aggregates were quantified in whole blood using dual-label flow cytometry (CytoFlex LX, Beckman Coulter). […] Platelet-leukocyte aggregates were quantified by two-color flow cytometry by incubating human samples with anti-CD45-APC (BD Biosciences) and anti-CD42a-FITC (BD Biosciences) and mouse samples with anti-CD45-eFluor506 (Invitrogen), anti-CD11b-APC (BD Biosciences), anti-Ly-6G-PE (BD Biosciences), and anti-CD41-FITC (BD Biosciences). […] Inhibition experiments were conducted in triplicate.
(§2) PSGL-1/P-selectin binding are responsible for the generation of platelet-leukocyte aggregates, which leads to the release of neutrophil extracellular traps and other procoagulant factors, as well as the infiltration of leukocytes (86, 87).

[3] = molecular target: T1, murine P-selectin-Fc chimera (Mus musculus, UniProt Q01102); assay: Flow cytometry inhibition of P-selectin-Fc chimera binding to murine leukocytes; assay type: cell-based; settings: P-selectin-Fc chimera 3 μg/mL
T1 construct: purchased R&D Systems
Experimental: Flow cytometry was used to quantify binding inhibition of P-selectin-Fc chimeras to human and murine leukocytes. Heparinized whole mouse blood was collected via cardiac puncture and human blood from healthy adult volunteers was collected in citrate. Leukocytes were isolated by centrifugation at 800 g for 10 min at room temperature, platelets removed by centrifugation at 120 g for 10 min at room temperature, and red blood cells lysed using red blood cell (RBC) lysis buffer (eBiosciences). […] The interaction of P-selectin with human and murine monocytes and neutrophils was analyzed by flow cytometry (CytoFlex LX, Beckman Coulter) and quantified as percent inhibition using FlowJo. Inhibition experiments were conducted in triplicate.
Binding of P-selectin was detected with phycoerythrin (PE)-conjugated anti-Fc antibody and quantified as mean fluorescent intensity and plotted as percent inhibition.

[4] = tested on: PL1, a monoclonal antibody specific to the N-terminal PSGL-1 peptide sequence; assay: Glycopeptide microarray binding assay, PL1
Experimental: (§3) For a multi-panel experiment on a single slide, the array layout was designed using Piezoarray software according to the dimension of a standard 14-chamber adaptor. The adaptor was applied on the slide to separate a single slide to 14 chambers sealed from each other during the experiment. All glycopeptides and control samples were printed on an NHS-activated glass slide in phosphate buffer (300 mM sodium phosphates, pH 8.5). The average spot volume was within 10% variation (intra-tip) of 0.33 nL. The average spot size was 100 μm. […] These AEAB derivatives and control biotin-NHNH2, all at 50 μM concentration, were printed on the microarray as controls and reference standards. After printing, the slide was placed in a high moisture chamber at 50° C. and incubated for 1 h. The slide was subsequently washed and blocked with 50 mM ethanolamine in 0.1 M Tris buffer (pH 8.0) for 1 h, dried by centrifugation, and stored desiccated at −20° C. prior to use. […] The scanned images were analyzed using ScanArray Express software.
(§4) The binding affinity of G4 towards P-selectin was initially screened using microarray technology. G4 along with 11 additional structural variants and synthetic intermediates, as well as five glycan standards (sLe^x, NA2, NA2,3, NA2,6, asialobiantennary, asialotetra-saccharide) were printed on an NHS-activated glass slide (FIGS. 7A-7C). […]

[5] = tested on: platelet-leukocyte aggregates; assay: Platelet-leukocyte aggregation in human whole blood (PAR1-activating peptide), flow cytometry; assay type: cell-based; settings: 120 μM
Experimental: as §1, §2

[6] = tested on: CHO131, a monoclonal antibody specific to the Core 2 O-glycan terminated sLe^x; assay: Glycopeptide microarray binding assay, CHO131
Experimental: as §3, §4

[7] = tested on: human P-selectin; assay: Glycopeptide microarray binding assay, P-selectin; settings: human P-selectin 5 μg/mL; compounds at 50 μM
Experimental: as §3
(§5) The binding affinity of G4 towards P-selectin was initially screened using microarray technology. G4 along with 11 additional structural variants and synthetic intermediates, as well as […] glycan standards (sLe^x, NA2, NA2,3, NA2,6, asialobiantennary, asialotetra-saccharide) were printed on an NHS-activated glass slide (FIGS. 7A-7C). The slide was then incubated with a recombinant immunoglobulin (Ig) chimera of P-sel (5 μg mL^−1) or monoclonal antibodies, PL1, specific to the N-terminal PSGL-1 peptide sequence, CHO131, specific to the Core 2 O-glycan terminated with sLe^X, or HECA-452, specific to sLe^x. The array was then washed and incubated with Alexa-488-labelled anti-human IgG antibody (5 μg/mL). […] Of note, the PL1 epitope spans residues 49-62, which includes the key sequence -L-P-E-T-E-P- (84). Thus, modification of the key T residue within the PL1 epitope alters PL1 binding, but not P-selectin binding. Binding of glycopeptide mimics was Ca2^+ dependent and inhibited by EDTA.

[8] = tested on: HECA-452, a monoclonal antibody specific to sLe^x; assay: Glycopeptide microarray binding assay, HECA-452
Experimental: as §3, §5

[9] = in vivo; settings: C57BL/6, mouse, iv, 8 umol/kg
Experimental: The supernatant (80 μL) was dried in vacuo, reconstituted in nanopure water (32 μL), and an aliquot (2 μL) was injected for pre-concentration at a flow rate of 5 μL/min using an UltiMate 3000 RSLCnano ultra-high-performance liquid chromatography (UHPLC) system (Dionex) coupled to an Orbitrap Fusion Lumos mass spectrometer (Thermo Fisher Scientific). […] Following in-source fragmentation (ISF), m/z 1121.09 (z=3) was used as the quantifying peptide. Peak areas from the extracted chromatograms were used for quantification. […] Compound half-life was determined using non-compartmental analysis.

[10] = molecular target: T2, P-selectin (Homo sapiens, UniProt P16109); settings: literature values; cited from earlier work
T2 sequence (P16109 42-830): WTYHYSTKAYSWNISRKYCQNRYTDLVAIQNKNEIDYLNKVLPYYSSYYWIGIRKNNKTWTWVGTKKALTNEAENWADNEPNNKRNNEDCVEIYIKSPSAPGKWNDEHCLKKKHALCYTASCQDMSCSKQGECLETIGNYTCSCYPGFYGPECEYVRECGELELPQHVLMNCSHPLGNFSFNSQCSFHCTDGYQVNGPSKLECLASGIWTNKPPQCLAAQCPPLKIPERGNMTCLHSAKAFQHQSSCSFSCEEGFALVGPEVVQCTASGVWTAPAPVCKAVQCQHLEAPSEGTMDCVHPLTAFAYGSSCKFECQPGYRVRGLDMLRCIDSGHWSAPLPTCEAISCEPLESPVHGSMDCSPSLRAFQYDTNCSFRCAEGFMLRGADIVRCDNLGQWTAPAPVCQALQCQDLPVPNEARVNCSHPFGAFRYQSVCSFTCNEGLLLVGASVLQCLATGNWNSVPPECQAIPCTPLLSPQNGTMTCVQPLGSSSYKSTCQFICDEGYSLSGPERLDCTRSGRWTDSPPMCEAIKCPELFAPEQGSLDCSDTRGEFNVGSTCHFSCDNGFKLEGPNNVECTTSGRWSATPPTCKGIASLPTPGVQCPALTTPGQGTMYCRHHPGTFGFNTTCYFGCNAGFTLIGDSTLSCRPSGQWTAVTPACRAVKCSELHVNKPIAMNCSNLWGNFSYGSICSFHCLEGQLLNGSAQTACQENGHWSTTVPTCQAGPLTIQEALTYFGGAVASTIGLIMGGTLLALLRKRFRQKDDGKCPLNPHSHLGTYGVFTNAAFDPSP

[11] = molecular target: T2, P-selectin; settings: reported values; cited from earlier work
[12] = molecular target: human P-selectin; assay: Biacore surface plasmon resonance binding assay (biotinylated ligand captured, P-selectin-Ig flowed); settings: human P-selectin-Ig 0.4-100 nM
Experimental: Biotinylated G4 was first captured quantitatively on a streptavidin-coated sensor chip (GE Healthcare). Different amounts of P-selectin-Ig chimera (P-Sel-Ig) were incubated in the wells (0.4-100 nM) and bound P-selectin detected using fluorescently labelled anti-human IgG. PL1 and CHO131 were used to confirm the immobilization step and to compare the relative amount of glycopeptide on the chip. Bound monoclonal antibodies and P-selectin were removed from the sensor chip by injecting 10 mM glycine-HCl, pH 2.0 and 50 mM EDTA, respectively, at 20 μL/min for 30 s. The kinetic parameters were obtained by plotting the curves using a 1:1 binding model provided by the Biacore evaluation software.

T1 sequence (Q01102 with tags, fused parts or gaps limits assumed): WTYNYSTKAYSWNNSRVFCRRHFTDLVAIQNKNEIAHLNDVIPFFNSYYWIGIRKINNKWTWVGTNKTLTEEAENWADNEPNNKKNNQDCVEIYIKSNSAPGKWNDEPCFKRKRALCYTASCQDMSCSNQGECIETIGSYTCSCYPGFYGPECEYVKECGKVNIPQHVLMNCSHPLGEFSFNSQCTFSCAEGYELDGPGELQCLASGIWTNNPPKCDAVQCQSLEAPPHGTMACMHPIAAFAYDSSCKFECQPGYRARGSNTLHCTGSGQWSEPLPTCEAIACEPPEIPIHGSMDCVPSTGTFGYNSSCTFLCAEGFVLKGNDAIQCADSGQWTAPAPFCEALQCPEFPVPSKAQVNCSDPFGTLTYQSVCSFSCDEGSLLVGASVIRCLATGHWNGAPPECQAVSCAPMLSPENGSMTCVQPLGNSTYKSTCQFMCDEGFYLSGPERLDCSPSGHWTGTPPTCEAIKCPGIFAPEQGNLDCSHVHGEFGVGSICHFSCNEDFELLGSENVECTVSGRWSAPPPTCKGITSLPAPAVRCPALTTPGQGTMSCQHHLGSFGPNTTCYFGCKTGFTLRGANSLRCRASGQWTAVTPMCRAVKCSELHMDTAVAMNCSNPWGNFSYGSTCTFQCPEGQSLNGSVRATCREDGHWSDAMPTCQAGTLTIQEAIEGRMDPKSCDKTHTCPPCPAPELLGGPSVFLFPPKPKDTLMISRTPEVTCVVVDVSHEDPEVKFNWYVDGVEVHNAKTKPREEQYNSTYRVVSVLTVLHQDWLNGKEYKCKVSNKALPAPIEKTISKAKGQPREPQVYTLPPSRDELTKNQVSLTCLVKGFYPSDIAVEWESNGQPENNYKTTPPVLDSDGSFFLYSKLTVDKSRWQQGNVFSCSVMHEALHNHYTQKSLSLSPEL

## enoxaparin
[1]
  venous thrombus formation / thrombus weight versus saline vehicle: significant reduction

## CC(=O)N[C@H]1[C@H](OCCn2cc(CO[C@H](C)[C@H](NC(=O)[C@H](CCC(=O)O)NC(=O)[C@@H]3CCCN3C(=O)[C@H](CC(C)C)NC(=O)[C@H](Cc3ccccc3)NC(=O)[C@H](CC(=O)O)NC(=O)[C@H](Cc3ccc(CS(=O)(=O)O)cc3)NC(=O)[C@H](CC(=O)O)NC(=O)[C@H](CC(C)C)NC(=O)[C@H](Cc3ccc(CS(=O)(=O)O)cc3)NC(=O)[C@H](CCC(=O)O)NC(=O)[C@H](Cc3ccc(CS(=O)(=O)O)cc3)NC(=O)[C@H](CCC(=O)O)NC(=O)[C@H](CCCCN)NC(C)=O)C(=O)N[C@@H](CCC(=O)O)C(=O)N3CCC[C@H]3C(=O)N[C@@H](CC(C)C)C(=O)O)nn2)O[C@H](CO)[C@@H](O[C@@H]2O[C@H](CO)[C@H](O)[C@H](O[C@]3(C(=O)O)C[C@H](O)[C@@H](NC(C)=O)[C@H]([C@H](O)[C@H](O)CO)O3)[C@H]2O)[C@@H]1O[C@@H]1O[C@@H](C)[C@@H](O)[C@@H](O)[C@@H]1O [G4, KEF*EF*LDF*DFLPET(Neu5Acα2-3Galβ1-4(Fucal-3)GlcNAc)EPL] (Ac-KE[Phe(4-CH2SO3H)]E[Phe(4-CH2SO3H)]LD[Phe(4-CH2SO3H)]DFLPET(X1)EPL-OH)
[2]
  Inhibition of murine platelet-monocyte aggregates: 41%
  Inhibition of murine platelet-neutrophil aggregates: 38%
[3]; murine monocytes, read-out: IC50, P-selectin binding to murine monocytes
  IC50: 10 µM
[3]; murine neutrophils, read-out: IC50, P-selectin binding to murine neutrophils
  IC50: 10 µM
[4]
  Binding of PL1 on microarray: neither PL1 or CHO131 bound
[5]
  Inhibition of human platelet-monocyte aggregates: 33%
  Inhibition of human platelet-neutrophil aggregates: 28%
[6]
  Binding of CHO131 on microarray: neither PL1 or CHO131 bound
[7]
  Binding to P-selectin on microarray: strongly bound
[8]
  Binding of HECA-452 on microarray: strongly bound
[9]
  half-life: 13.2 ± 5.04 min

## O=C(O)c1c(O)c(C2(c3ccc(Cl)cc3)CC2)nc2c(C(F)(F)F)cccc12 [PSI-421, 2-[1-(4-chlorophenyl)cyclopropyl]-3-hydroxy-8-(trifluoromethyl)quinoline-4-carboxylic acid]
[10]
  IC50: 225 µM

## KEF*EF*LDF*DFLPET(Neu5Acα2-3Galβ1-4(Fucal-3)GlcNAcβ1-6(Galβ1-3)GalNAcα)EPL (KEFEFLDFDFLPET(Neu5Acα2‑3Galβ1‑4(Fucal-3)GlcNAcβ1‑6(Galβ1-3)GalNAcα)EPL; not fully specified (residues 3, 5, 8)) [GSnP-6, previously reported glycosulfonopeptide P-selectin antagonist, reference compound]
[11]
  Kd: 0.022 µM and 0.027 µM
[7]
  Binding to P-selectin on microarray: strongly bound
[8]
  Binding of HECA-452 on microarray: strongly bound
[12]
  Kd: 0.027 µM

## EY*EY*LDY*DFLPET(Neu5Acα2-3Galβ1-4(Fucal-3)GlcNAcβ1-6Galβ1-3GalNAcα)EPPEM (EYEYLDYDFLPET(Neu5Acα2‑3Galβ1‑4(Fucal-3)GlcNAcβ1‑6Galβ1‑3GalNAcα)EPPEM; not fully specified (residues 2, 4, 7)) [GSP-6]
[7]
  Binding to P-selectin on microarray: strongly bound
[8]
  Binding of HECA-452 on microarray: strongly bound

## C[C@@H]1O[C@@H](O[C@@H]2[C@@H](NC(=O)c3cc(=O)[nH]c(=O)[nH]3)C[C@@H](C(=O)NCCNC(=O)COCCOCC(=O)Nc3cc(S(=O)(=O)O)cc4cc(S(=O)(=O)O)cc(S(=O)(=O)O)c34)C[C@H]2O[C@@H]2O[C@H](CO)[C@H](O)[C@H](O[C@@H](CC3CCCCC3)C(=O)O)[C@H]2OC(=O)c2ccccc2)[C@@H](O)[C@H](O)[C@@H]1O [GMI-1070]
[10]
  IC50: 423 µM
